In EP4335840A1, “NEW CONTRAST AGENTS FOR USE IN DIAGNOSTIC IMAGING” (priority 2022, dated 2024):

Assays:
[1] = tested on: freshly isolated rat hepatocytes; assay: Uptake into freshly isolated rat hepatocytes; details: for Uptake rat hepatocytes: 100 µmol Gd/L, 10 min, 37°C, relative to RC1 (Gd-EOB-DTPA); for Inhibition Rifampicine: rat hepatocyte uptake with OATP1B1/1B3 inhibitor Rifampicine, test item and inhibitor each 100 µM
Protocol: The rat hepatocytes were incubated (2.5 ·10^5 cells/well) for 2.5 to 4h in collagen coated 24-well plates (Fa. Beckton Dickinson Biocoat, cell environments, Collagen I Cellware) in Williams E-medium (Fa. Sigma W1878) in an incubator (37°C, 5% CO2 and 95% oxygen). After incubation the adherent hepatocytes were washed once with 37°C Hepes carbonate transport buffer (500 µL/well). The test items and RC1 were prepared from stock solutions (180 to 500 mM concentration) in Hepes carbonate transport buffer at pH 7.4 to reach a final concentration of 100 µmοl Gd/L. The specific uptake of the test item or RC1 into rat hepatocytes via OATP1 B1 and OATP1 B3 was challenged using a known OATP1B1/1B3 inhibitor (Rifampicine, Fa. Sigma R3501, test item and inhibitor 1:1 each 100 µM final concentration). The prepared rat hepatocyte plates were incubated with test solutions (500 µL/well) at 37°C for 10 min using a thermoshaker (Fa. Grant Bio, PHMP). Triplicates were performed for each test item. After incubating the cells were washed once with cold PBS buffer (Fa. Gibco, Dulbeccos PBS (+)). After washing the intact hepatocytes were lysed by addition of 500 µL cold 0.01 % Triton-X 100 in Millipore water for 1h. […] After 1h 500 µL of 10 nM Terbium ICP-MS standard was added in 2% nitric acid and 0.01% Triton 100 before the Gadolinium concentrations in the lysate were measured using ICP-MS (Agilent 8900, singleQuad, integr. Time 0.3 s, no gas, 5 replicates, Gd m/z 157, Tb m/z 159). As a reference standard RC1 is used in the same well plate. The hepatocyte uptake of the test compound is calculated relative to RC1 (resulting in the unit % of RC1).

[2] = biological target: T1, OATP1B1 (Homo sapiens, UniProt Q9Y6L6); assay: Uptake into stable transfected OATP1B1 HEK 293 cells; format: cell-based; details: 100 µM, 40 min, relative to RC1 (Gd-EOB-DTPA)
T1 sequence (Q9Y6L6 1-691): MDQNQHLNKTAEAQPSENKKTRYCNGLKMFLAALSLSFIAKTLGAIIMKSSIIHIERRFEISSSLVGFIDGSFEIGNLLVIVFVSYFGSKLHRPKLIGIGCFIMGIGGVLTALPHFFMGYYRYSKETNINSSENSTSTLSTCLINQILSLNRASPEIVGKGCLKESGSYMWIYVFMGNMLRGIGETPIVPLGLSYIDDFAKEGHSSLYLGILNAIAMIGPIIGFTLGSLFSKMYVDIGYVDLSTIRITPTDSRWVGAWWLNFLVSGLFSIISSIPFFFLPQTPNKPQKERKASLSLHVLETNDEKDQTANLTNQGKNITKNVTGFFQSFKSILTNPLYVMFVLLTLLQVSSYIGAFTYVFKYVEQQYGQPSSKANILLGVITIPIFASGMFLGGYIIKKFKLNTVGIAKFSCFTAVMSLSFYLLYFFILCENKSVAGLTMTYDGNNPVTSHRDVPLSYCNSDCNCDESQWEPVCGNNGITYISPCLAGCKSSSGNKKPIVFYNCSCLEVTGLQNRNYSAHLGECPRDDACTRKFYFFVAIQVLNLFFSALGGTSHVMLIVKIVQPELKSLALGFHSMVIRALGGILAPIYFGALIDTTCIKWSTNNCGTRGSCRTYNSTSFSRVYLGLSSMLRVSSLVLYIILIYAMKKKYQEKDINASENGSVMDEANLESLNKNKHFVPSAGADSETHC
Protocol: Human stable transfected OATP1B1 human embryonic kidney 293 cells (OATP1B1 HEK 293, SLCO1B1, Entrez Gene ID: 10599) were used (Leonhardt M et al. Drug Metab Dispos. 2010 Jul;38(7):1024-8). The following culture medium was used: 500 mL DMEM (Dulbecco's Modified Eagle Medium - high Glucose, D6429), 50 mL FCS (fetal bovine serum, Fa. Sigma, F7524), 5.8 mL G418 (Geneticin, Fa. Gibco 10131-027) and 5 mL Pen-Strep. (Penicillin-Streptomycin, Fa. Gibco, Ref 15140-122). Cryopreserved cells were shortly thawed in water bath and diluted in 10 mL warm culture medium (37°C). After medium change the cells were grown for 3d in a 25 cm^2 cell culture flask. After 3 to 5d the cells were transferred into 75 cm^2 flasks. For the splitting the cells were incubated with 1.5 mL trypsin (Trypsin-EDTA (1x) 0,05%, Ref 25300-054 100ml, Fa. Gibco) for 3-5min in the incubator (37°C, 5% CO2 and […]). After centrifugation and washing with medium the cells were counted (50 µL cell suspension and 50 µL trypan blue (Trypan Blue Solution, 93595-50ml, Fa. Fluka). Cells were cultured (1×10^5 cells/well) in poly-D-lysine coated 24-well plates (Fa. Corning, Ref: 354414) in 1.5 mL medium per well. After 48h in the incubator the medium was changed and 1.5 mL/well sodium butyrate containing medium were added (40 mL culture medium plus 400 µL Na-Butyrate, Fa. Sigma Aldrich B5887-5G, 250 mg in 2.27 mL MilliQ water). After 24h in the incubator the medium was vacuumed off and 1.5 mL transport buffer was added and incubated for 10min. The transport buffer contains the following ingredients: 500 mL HBSS (Hank's balanced salt solution, Hyclone, SH30268.01), 5 mL HEPES buffer (4-(2-hydroxyethyl)-1-piperazineethanesulfonic acid, Gibco 15630-056) and 3.9 mL glucose (Sigma, G8270-100, 90 g/200mL MilliQ water). All test items were prepared in transport buffer at a final concentration of 100 µM from stock solutions (180 to 500 mM concentration). The OATP1B1 HEK 293 cells were incubated with test solutions (test item in transport buffer 500 µL) for 40min on a thermoshaker without shaking (PHMP, Fa. Grant Bio). Triplicates were performed for each test item. After incubation the cells were washed with 2 mL of cold PBS (+) buffer (Dulbeccos PBS +, Fa. Gibco). […] As a reference standard Gd-EOB-DTPA (gadoxetate) is used in the same well plate. The OATP1B1 HEK 293 uptake of the test compound is calculated relative to gadoxetate (resulting in the unit % of RC1).

[3] = Relaxivity measurements at 1.41 T in water and human plasma; format: physicochemical; details: 37°C, normalized to Gd
Protocol: Relaxivity measurements at 1.41 T were performed using a MiniSpec mq60 spectrometer (Bruker Analytik, Karlsruhe, Germany) operating at a resonance frequency of 60 MHz and a temperature of 37°C. The T1 relaxation times were determined using the standard inversion recovery (IR) method with a fixed relaxation delay of at least 5 × T1. The variable inversion time (TI) was calculated automatically by the standard software of the MiniSpec mq60 (8 steps). The T2 measurements were performed by using a Carr-Purcell-Meiboom-Gill (CPMG) pulse sequence, applying a relaxation delay of at least 5 × T1.
Each relaxivity measurement was performed using three different Gd concentrations (3 concentrations between 0.05 and 2 mM). The T1 and T2 relaxation times of the example compounds 1 to 10 were measured in different media for example in water and human plasma. Human plasma preparation: For each experiment fresh blood was taken from a volunteer using 10 mL citrate-tubes (Sarstedt S-Monovette 02.1067.001, 10 mL, Citrate). The 10 mL citrate-tubes were carefully inverted 10 times to mix blood and anticoagulant and centrifuged for 15min at 1811 g at RT (Eppendorf, Centrifuge 5810R).
The relaxivities ri (where i=1, 2) were calculated based on the measured relaxation rates Ri in water and plasma: ri = (Ri−Ri(0))/CGd [formula] where Ri(0) represent the relaxation rate of the respective solvent and CGd the concentration of the compound normalized to the Gadolinium. The Gadolinium concentrations of the investigated solutions were verified by Inductively Coupled Plasma Mass Spectrometry (ICP-MS Agilent 7500a, Waldbronn, Germany). Table 3: Relaxivities of investigated compounds in water and human plasma at 1.41 T and relaxivities of Reference compounds 1-3 (RC1-RC3) at 1.5 T in water and bovine plasma. All values are measured at 37°C and normalized to Gd and given in L mmol-1 s-1.

| Substance | Uptake rat hepatocytes [1] | Inhibition Rifampicine [1] | Uptake into OATP1B1-HEK 293 cells [2] | r1 human plasma [3] | r1 water [3] |
| --- | --- | --- | --- | --- | --- |
| Gadolinium-2,2',2"-[10-(carboxymethyl)-2-(4-ethoxybenzyl)-1,4,7,10-tetraazacyclododecane-1,4,7-triyl]triacetate [Example 8] | 143 % of RC1 | 96 % inhibition | 208 % of RC1 | 6.5 L/mmol/s | 4.7 L/mmol/s |
| Gadolinium-2,2',2"-[10-(carboxymethyl)-2-(4-ethoxybenzyl)-1,4,7,10-tetraazacyclododecane-1,4,7-triyl]triacetate [Example 9] | 42 % of RC1 | 93 % inhibition | 60 % of RC1 | 5.6 L/mmol/s | 4.3 L/mmol/s |
| Gadolinium-2,2',2"-[(2S)-2-(4-butoxybenzyl)-10-(carboxymethyl)-1,4,7,10-tetraaza cyclododecane-1,4,7-triyl]triacetate [Example 12] | 110 % of RC1 | 96 % inhibition | 119 % of RC1 | 8.8 L/mmol/s | 4.7 L/mmol/s |
| Gadolinium-2,2',2"-[(2S)-2-(4-butoxybenzyl)-10-(carboxymethyl)-1,4,7,10-tetraaza cyclododecane-1,4,7-triyl]triacetate [Example 13] | 137 % of RC1 | 86 % inhibition | 847 % of RC1 | 9.8 L/mmol/s | 5.3 L/mmol/s |
| Gadolinium-2,2',2"-[(2S)-10-(carboxymethyl)-2-(4-ethoxybenzyl)-1,4,7,10-tetraazacyclododecane-1,4,7-triyl]triacetate [Example 10] | 104 % of RC1 | 96 % inhibition | 212 % of RC1 | 6.4 L/mmol/s | 4.8 L/mmol/s |
| Gadolinium-2,2',2"-[(2S)-10-(carboxymethyl)-2-(4-ethoxybenzyl)-1,4,7,10-tetraazacyclododecane-1,4,7-triyl]triacetate [Example 11] | 49 % of RC1 | 96 % inhibition | 96 % of RC1 | 6.2 L/mmol/s | 4.4 L/mmol/s |
